Experimental data: patent US10179355B2, “Bioremediation enhancing agents and methods of use” (JRW BIOREMEDIATION, LLC, priority 2007, dated 2019)
Several values for one entry are separate records, joined by “and”; a condition that tells them apart may be missing. Equal values may be shown once.

Test system: dechlorinating bacteria known to convert PCE to ethene
Assay: Set G: Additional Yeast Metabolites and Polysaccharides as Nutrients, PCE dechlorination microcosms (kinetics, Relative Rate, paired t-test)
Type: cell-based, Dehalococcoides and Dehalobacter spp.
Source text: Certain contaminated materials (or sites) may contain indigenous microbial communities that are sufficient for complete bioremediation of contaminants. For such sites, there is no need to add microbes unless the indigenous microbes are genetically deficient in achieving the desired clean-up goals. For those sites that are microbiologically limited, microorganisms may be added to the contaminated materials (or sites). In one embodiment, the inoculum may be a mixed culture of halo-respiring bacteria that have been enriched to reach an optimal cell density. These mixed cultures of halo-respiring bacteria may be typically obtained from sediment samples from rivers, streams or any waterways. More specifically, the inoculum used in the Examples was originated from a Sangamon River sediment sample (Lodge Park, Piatt County, Ill.) See, e.g., Brennan, R. A., Sanford, R. A. and Werth, C. J. (2006). “Biodegradation of Tetrachloroethene by Chitin Fermentation Products in a Continuous Flow Column System.” Journal of Environ. Engr., June 665-673. This culture had grown for several years on PCE, anaerobic basal salts medium, Wolfe's vitamin solution and various electron donors including lactate (1-2 millimolar (mM)), formate (4 mM) and chitin using the Volatile Interface Transfer Apparatus (VITA) reactor system at the University of Illinois. Brennan, R. A., and Sanford, R. A. (2002). “Continuous steady-state method using Tenax for delivering tetrachloroethene to chlororespiring bacteria.” Appl. Environ. Microbiol., 68(3), 1464-1467. […] Using 16S rRNA gene-specific primers, both Dehalococcoides and Dehalobacter spp. were detected. Quantitative real-time PCR has been used to determine that approximately 1.65×10^7 Dehalococcoides gene copies were present per ml of culture.
For purpose of this disclosure, each bottle may be started with a certain amount of PCE. At subsequent times each bottle may be sampled for the degradation daughter products of PCE, namely trichloroethene (TCE), cis-dichloroethene (DCE), vinyl chloride (VC) and ethene, etc. Trans-DCE and 1,1-DCE are also daughter products of PCE, but they may not be detectable under the conditions disclosed here.
The rate of degradation may be determined by calculating the number of pmoles of chloride ions removed from PCE and subsequently from the amounts of the daughter products generated. The calculation may be performed as follows: Chloride (μmoles)=[…]−4×PCE (μmoles)−3×TCE (pmoles)−2×DCE (μmoles)−VC (μmoles)
The alternative chloride calculation is: Chloride (μmoles)=TCE (μmoles)+2×DCE (μmoles)+3×VC (μmoles)+4×Ethene (μmoles)
Next, the dechlorination rate may be determined for each bottle at each time by dividing the Chloride generated by the time (days). The data may be then normalized to the lactate control by taking the ratio of Chloride Rate (pmoles/day) and the Lactate Control Chloride Rate (pmoles/day). This ratio is called Relative Rate and is dimensionless.
As shown in the Examples, a paired t-test has been conducted to calculate the probability that the Relative Rate of one group (i.e. with Nutrient) is greater than the other group (i.e. without Nutrient). The null hypothesis is that the underlying means of the two paired groups are equal. The Probability that one group has higher Relative Rates than the other group is shown in various tables in the Examples.
The following components were used in the system for bioremediating contaminated ground water microcosms in Examples 2-8: • 160 milliliter (ml) stoppered serum bottles • 100 ml of anaerobic culture medium, groundwater containing an excess of bioavailable phosphorus and nitrogen at 0.5 mM Phosphate and 1 mM ammonium degassed with a nitrogen sparge • Nominally 1 gram of limestone • 19.54 micromoles (pmoles) Perchloroethene (PCE) • An excess of various electron donors were utilized • 3 ml of inoculum containing dechlorinating bacteria known to convert PCE to ethene. […]

CC(O)C(=O)[O-].[Na+] (centres unmarked) [Lactate Control, sodium lactate]
Cl^− Rate ± s.d. (0 days): 0.00 ± 0.00 µmol | Cl^− ± s.d. (0 days): 0.00 ± 0.00 µmol | DCE ± s.d. (0 days): 0.00 ± 0.00 µmol | Ethene ± s.d. (0 days): 0.00 ± 0.00 µmol | PCE ± s.d. (0 days): 20.80 ± 0.95 µmol | TCE ± s.d. (0 days): 0.00 ± 0.00 µmol | VC ± s.d. (0 days): 0.00 ± 0.00 µmol | Cl^− Rate ± s.d. (21 days): 0.13 ± 0.05 µmol | Cl^− ± s.d. (21 days): 2.83 ± 1.04 µmol | DCE ± s.d. (21 days): 0.31 ± 0.18 µmol | Ethene ± s.d. (21 days): 0.07 ± 0.01 µmol | PCE ± s.d. (21 days): 18.6 ± 0.45 µmol | TCE ± s.d. (21 days): 1.91 ± 0.71 µmol | VC ± s.d. (21 days): 0.00 ± 0.00 µmol | Cl^− Rate ± s.d. (35 days): 0.26 ± 0.10 µmol | Cl^− ± s.d. (35 days): 8.95 ± 3.33 µmol | DCE ± s.d. (35 days): 1.39 ± 0.72 µmol | Ethene ± s.d. (35 days): 0.07 ± 0.00 µmol | PCE ± s.d. (35 days): 10.80 ± 1.36 µmol | TCE ± s.d. (35 days): 5.91 ± 1.90 µmol | VC ± s.d. (35 days): 0.00 ± 0.00 µmol | Cl^− Rate ± s.d. (50 days): 0.49 ± 0.10 µmol | Cl^− ± s.d. (50 days): 24.59 ± 5.08 µmol | DCE ± s.d. (50 days): 9.70 ± 2.99 µmol | Ethene ± s.d. (50 days): 0.07 ± 0.00 µmol | PCE ± s.d. (50 days): 3.13 ± 1.26 µmol | TCE ± s.d. (50 days): 4.92 ± 1.03 µmol | VC ± s.d. (50 days): 0.00 ± 0.00 µmol | Cl^− Rate ± s.d. (79 days): 0.53 ± 0.02 µmol | Cl^− ± s.d. (79 days): 42.00 ± 1.93 µmol | DCE ± s.d. (79 days): 20.84 ± 0.96 µmol | Ethene ± s.d. (79 days): 0.07 ± 0.00 µmol | PCE ± s.d. (79 days): 0.00 ± 0.00 µmol | TCE ± s.d. (79 days): 0.04 ± 0.07 µmol | VC ± s.d. (79 days): 0.00 ± 0.01 µmol | Cl^− Rate ± s.d. (138 days): 0.24 ± 0.01 µmol | Cl^− ± s.d. (138 days): 33.42 ± 1.26 µmol | DCE ± s.d. (138 days): 16.55 ± 0.64 µmol | Ethene ± s.d. (138 days): 0.06 ± 0.00 µmol | PCE ± s.d. (138 days): 0.00 ± 0.00 µmol | TCE ± s.d. (138 days): 0.00 ± 0.00 µmol | VC ± s.d. (138 days): 0.03 ± 0.03 µmol | Relative Rate (bottle 1, 21 days): 0.78 | Relative Rate (bottle 1, 35 days): 0.63 | Relative Rate (bottle 1, 50 days): 0.86 | Relative Rate (bottle 1, 79 days): 1.08 | Relative Rate (bottle 1, 138 days): 0.51 | Relative Rate (bottle 2, 21 days): 1.43 | Relative Rate (bottle 2, 35 days): 1.37 | Relative Rate (bottle 2, 50 days): 1.24 | Relative Rate (bottle 2, 79 days): 1.13 | Relative Rate (bottle 2, 138 days): 0.49 | Relative Rate (bottle 3, 21 days): 0.80 | Relative Rate (bottle 3, 35 days): 1.00 | Relative Rate (bottle 3, 50 days): 0.90 | Relative Rate (bottle 3, 79 days): 1.03 | Relative Rate (bottle 3, 138 days): 0.48 | dechlorination kinetics / completeness of dechlorination (in words) (through 138 days): statistically higher dechlorination kinetics as compared to PS1 and molasses | Relative Rate (time 21 days, bottles 1-3): 1.43 and 0.80 and 0.78 | Relative Rate (time 50 days, bottles 1-3): 1.24 and 0.90 and 0.86 | Relative Rate (time 79 days, bottles 1-3): 1.08 and 1.13 and 1.03 | Relative Rate (time 138 days, bottles 1-3): 0.51 and 0.49 and 0.48
